PubChem BioAssay (NCI)
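96-well plates; 48 h exposure; 5 concentrations. Endpoints by linear interpolation between flanking doses. Not reached: highest tested concentration assigned. TGI is the concentration that stops growth completely.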

Tests used:
Assay in all cases: growth of human tumour cells (NCI), 48 h
[1] = tested on: T-47D breast
[2] = tested on: HT29 colon
[3] = tested on: MDA-N
[4] = tested on: NCI/ADR-RES ovarian
[5] = tested on: MOLT-4 leukemia
[6] = tested on: UO-31 renal
[7] = tested on: RXF 393 renal
[8] = tested on: OVCAR-3 ovarian
[9] = tested on: SNB-75 CNS
[10] = tested on: K-562 leukemia
[11] = tested on: MDA-MB-435
[12] = tested on: OVCAR-8 ovarian
[13] = tested on: SNB-19 CNS
[14] = tested on: SK-MEL-28 melanoma
[15] = tested on: SF-268 CNS
[16] = tested on: EKVX NSCLC
[17] = tested on: HCT-15 colon
[18] = tested on: 786-0 renal
[19] = tested on: SK-MEL-5 melanoma
[20] = tested on: MCF7 breast
[21] = tested on: SF-539 CNS
[22] = tested on: A549 NSCLC
[23] = tested on: HCT-116 colon
[24] = tested on: SR leukemia
[25] = tested on: CCRF-CEM leukemia
[26] = tested on: HCC-2998 colon
[27] = tested on: NCI-H23 lung
[28] = tested on: A498 renal
[29] = tested on: RPMI-8226 leukemia
[30] = tested on: HOP-62 NSCLC
[31] = tested on: HOP-92 NSCLC
[32] = tested on: MDA-MB-231 breast
[33] = tested on: TK-10 renal
[34] = tested on: LOX IMVI melanoma
[35] = tested on: HL-60(TB) leukemia
[36] = tested on: UACC-62 melanoma
[37] = tested on: SK-MEL-2 melanoma
[38] = tested on: HS 578T breast
[39] = tested on: SN12C renal
[40] = tested on: SF-295 CNS
[41] = tested on: IGROV1 ovarian
[42] = tested on: NCI-H460 lung
[43] = tested on: OVCAR-5 ovarian
[44] = tested on: M14 melanoma
[45] = tested on: PC-3 prostate
[46] = tested on: SW-620 colon
[47] = tested on: CAKI-1 renal
[48] = tested on: OVCAR-4 ovarian
[49] = tested on: U251 CNS
[50] = tested on: ACHN renal
[51] = tested on: DU-145 prostate
[52] = tested on: KM12 colon
[53] = tested on: UACC-257 melanoma
[54] = tested on: COLO 205 colon
[55] = tested on: BT-549 breast
[56] = tested on: SK-OV-3 ovarian

Work on `O=C1c2ccccc2C2(c3ccc(Cl)cc3)NCc3ccccc3CN12` (stereo unspecified) yielded a TGI [1] of 49.9 µM, a TGI [2] of 28.5 µM and a TGI [3] of over 100 µM. The TGI [4] was 29.9 µM, the TGI [5] was 91.7 µM and the TGI [6] was 78.1 µM. For the same molecule, the TGI [7] was 29.6 µM, the TGI [8] was 26.6 µM and the TGI [9] was over 100 µM. For the same molecule, the TGI [10] was over 100 µM, the TGI [11] was over 100 µM and the TGI [12] was 60.8 µM. It also gave a TGI [13] of 51.6 µM, a TGI [14] of over 100 µM and a TGI [15] of over 100 µM. For the same molecule, the TGI [16] was 49.1 µM, the TGI [17] was 60.7 µM and the TGI [18] was 26.4 µM. For the same molecule, the TGI [19] was 29.5 µM, the TGI [20] was 40 µM and the TGI [21] was 29.8 µM. For the same molecule, the TGI [22] was 43.8 µM, the TGI [23] was 22.6 µM and the TGI [24] was over 100 µM. The TGI [25] was 86.2 µM, the TGI [26] was 45.6 µM and the TGI [27] was 48.4 µM. For the same molecule, the TGI [28] was 42.8 µM, the TGI [29] was 75.2 µM and the TGI [30] was 30.5 µM. It also gave a TGI [31] of 56 µM, a TGI [32] of over 100 µM and a TGI [33] of over 100 µM. It also gave a TGI [34] of 29.7 µM, a TGI [35] of 40.6 µM and a TGI [36] of 33.5 µM. For the same molecule, the TGI [37] was 29.5 µM, the TGI [38] was 56.7 µM and the TGI [39] was over 100 µM. For the same molecule, the TGI [40] was 35.7 µM, the TGI [41] was 94.7 µM and the TGI [42] was 91.5 µM. It also gave a TGI [43] of 58.1 µM, a TGI [44] of 34 µM and a TGI [45] of 51.3 µM. For the same molecule, the TGI [46] was over 100 µM, the TGI [47] was over 100 µM and the TGI [48] was 79.3 µM. The TGI [49] was over 100 µM, the TGI [50] was 51.6 µM and the TGI [51] was 50.3 µM. For the same molecule, the TGI [52] was 44.2 µM, the TGI [53] was over 100 µM and the TGI [54] was 28.3 µM. It also gave a TGI [55] of over 100 µM and a TGI [56] of 80.9 µM.
